# Experimental data published in US20210205638A1, “PARATHYROID HORMONE AND REGENERATION OF DEGENERATIVE DISCS DISEASE” (THE JOHNS HOPKINS UNIVERSITY, priority 2017, published 2021).
# Assays:
# Type in all cases: in vivo, mouse
# IFT88-/- mice = assay: iPTH in IFT88-/- and wild-type mice: PPCT IVD volume and IVD histological score
# From the text: Mice carrying the PTH1R gene flanked by loxP sites (PTH1R^flox/flox) were mated with Noto^Cre mice to generate mice bearing Noto^Cre and a floxed PTH1R allele in their germline. These mice were backcrossed to homozygous floxed mice (Noto^Cre/+/PTH1R^flox/+::PTH1R^flox/flox) to generate mice with inactivation of both alleles in notochord derived cells (genotype […]). Homozygous disruption of the Noto locus is perinatally lethal; viable offspring have genotypes of either Noto^Cre/+:: PTH1R^flox/flox (mice with PTH1R conditional deletion in Noto lineage cells are referred to as “[…]” in the text) or Noto^+/+:: PTH1R^flox/flox (wild-type littermates hereinafter referred to as “PTH1R^+/+” in the text). The genotype of transgenic mice was determined by PCR analyses of genomic DNA isolated from mouse tails. The floxed PTH1R allele was identified with primers lox1F (5-[…] ID NO: 1) and lox1R (5-[…] ID NO: 2). The genotyping for the Cre transgene was performed by PCR with the primers […] ID NO: 3) […] ID NO: 4). We generated Noto^Cre/+:: ROSA26-lacZ^flox/flox by crossing Noto mice with mice homozygous with a loxP-flanked DNA stop sequence, preventing expression of the downstream lacZ gene. IFT88^flox/flox mouse model has been generated as descripted. A NP tissue-specific primary cilia knock-out (KO) mouse line was generated by crossing NotoCre mice with IFT88^flox/flox mice, in which the primary cilia were deleted from the NP tissue. The loxP IFT88 allele was identified with the primers lox2F ([NT] ID NO: 5) and lox2R ([NT] ID NO: 6). The 11 month-old PTH1R^+/+ and PTH1R^-/- male mice were randomized into four groups: PTH1R^+/++PTH (1-34), PTH1R^+/++Vehicle, PTH1R^-/-+PTH (1-34) and PTH1R^-/-+Vehicle groups (n=8 per group). […] Quantitative histomorphometric analysis was conducted in a blinded fashion with Image-Pro Plus Software version 6.0 (Media Cybernetics Inc). […] Five randomly selected sections per mice in each group at L3-L4 level were chosen for quantitative histomorphometric analysis. […] The percentage area of CCN2 and ACAN positive staining was calculated by measuring the positive area to the whole area of the L3-L4 in each group. […] The images were reconstructed and analyzed using the GPU-CT-Reconstruction software (applied by the BL13W1 experimental station) and the VG Studio Max 3D software (version 2.1, Volume Graphics GmbH, Germany) respectively. […] The 3D quantitative analysis of IVDs was performed with the commercially available Image Pro Analyzer 3D software (Version 7.0, Media Cybernetics, Inc., USA). The 3D structural parameters analyzed for the mean height and volume and thickness distribution of IVDs. […]
# TGF-β = assay: ELISA of total and active TGF-β in NP tissue of aged mice; conditions: 18-month-old mice
# Method: For cAMP assays, confluent cells were grown in 35-mm six-well plates starved overnight by incubation in serum-free α-MEM at 37° C. The cells were then treated with 100 nM human of human PTH (1-34; Bachem Calif., Inc.) for 1 h. Cellular cAMP was extracted and the concentration measured with the Biotrak enzyme immunoassay system (GE Healthare, Inc., Princeton, HJ). We determined the concentration of total and active TGF-β in the NP tissue using the ELISA Development Kit (R&D Systems) according to the manufacturer's instructions.
# β6 integrin = assay: qRT-PCR of integrin mRNA in NP tissue of aged mice; conditions: NP cells of the aged mice
# Method: After protein extraction, specimen from the same group of mice were prepared for RNA extraction using TRIzol reagent (Invitogen) according to the manufacturer's instruction. The purity of RNA was tested by measuring the absorbance at 260 and 280 nm. For qRT-PCR, two micrograms of RNA was reverse transcribed into cDNA using the SuperScript firststrand synthesis system (Invitrogen) and analyzed with SYBR Green-Master Mix (Qiagen) in the thermal cycler with two sets of primers specific for each target gene. Relative expression was calculated for each gene by the 2^−ΔΔCT method, with GAPDH for normalization.
structure (smiles),measurement,setting,value
"CC[C@H](C)[C@H](NC(=O)[C@H](CCC(=O)O)NC(=O)[C@H](CO)NC(=O)[C@@H](NC(=O)[C@@H](N)CO)C(C)C)C(=O)N[C@@H](CCC(N)=O)C(=O)N[C@@H](CC(C)C)C(=O)N[C@@H](CCSC)C(=O)N[C@@H](Cc1cnc[nH]1)C(=O)N[C@@H](CC(N)=O)C(=O)N[C@@H](CC(C)C)C(=O)NCC(=O)N[C@@H](CCCCN)C(=O)N[C@@H](Cc1cnc[nH]1)C(=O)N[C@@H](CC(C)C)C(=O)N[C@@H](CC(N)=O)C(=O)N[C@@H](CO)C(=O)N[C@@H](CCSC)C(=O)N[C@@H](CCC(=O)O)C(=O)N[C@@H](CCCN=C(N)N)C(=O)N[C@H](C(=O)N[C@@H](CCC(=O)O)C(=O)N[C@@H](Cc1c[nH]c2ccccc12)C(=O)N[C@@H](CC(C)C)C(=O)N[C@@H](CCCN=C(N)N)C(=O)N[C@@H](CCCCN)C(=O)N[C@@H](CCCCN)C(=O)N[C@@H](CC(C)C)C(=O)N[C@@H](CCC(N)=O)C(=O)N[C@@H](CC(=O)O)C(=O)N[C@H](C(=O)N[C@@H](Cc1cnc[nH]1)C(=O)N[C@@H](CC(N)=O)C(=O)N[C@@H](Cc1ccccc1)C(=O)O)C(C)C)C(C)C [PTH (1-34), teriparatide]",improvement of IVD scores by iPTH,IFT88-/- mice; IFT88-/- mice,impaired
same,iPTH-increased IVD volume,IFT88-/- mice; IFT88-/- mice relative to wild-type mice,blunted
same,IVD scores,IFT88-/- mice; wild-type mice,improvement
same,IVD volume,IFT88-/- mice; wild-type mice,increased
same,level of active TGF-β in IVDs,TGF-β,increased
same,total TGF-β level,TGF-β,not changed
same,mRNA expression of β6 integrin,β6 integrin,specifically induced
